Assay results from patent US9914722B2, “Compounds for treating spinal muscular atrophy” (PTC Therapeutics Inc., priority 2012, dated 2018).

What was measured:
[1] = tested on: SMN2 full length and Δ7 mRNA; assay: Endogenous SMN2 mRNA end-point semi-quantitative RT-PCR splicing assay in cultured cells; type: cell-based, human; conditions: 24 hr, FIG. 5; for SMN2 FL mRNA (gel band) / SMN2 Δ7 mRNA (gel band): GM03813 Type 1 SMA patient fibroblasts, increasing concentrations; for SMN2 alternative splicing: Type 1 SMA patient fibroblasts, rising concentrations
Protocol: Endogenous SMN2 mRNA End-Point Semi-Quantitative RT-PCR Splicing Assay in Cultured Cells
The endpoint reverse transcription-PCR splicing assay is used to visualize and quantify the levels of the SMN2 full length and Δ7 mRNA in primary cells and cell lines containing the SMN2 gene treated with a test compound.
Protocol. GM03813 SMA patient cells (5,000 cells/well) are seeded in 200 μL of cell culture medium (DMEM plus 10% FBS) in 96-well flat-bottom plates and the plate is immediately swirled to ensure proper dispersal of cells, forming an even monolayer of cells. Cells are allowed to attach for at least 4-6 hrs. Test compounds are serially diluted 3.16-fold in 100% DMSO to generate a 7-point concentration curve. A solution of test compound (1 μL, 200× in DMSO) is added to each test well and 1 μL DMSO is added to each control well. The plate is incu bated for 24 hrs in a cell culture incubator (37° C., 5% CO2, 100% relative humidity). The cells are then lysed in Cells-To-Ct lysis buffer and the lysate is stored at −80° C.
SMN FL and Δ7 mRNA are identified using the following primers in Table 6. These primers hybridize to a nucleotide sequence in exon 6 (SMN Forward C, SEQ ID NO. 11) (nucleotide 43 to nucleotide 63) and exon 8 (SMN Reverse C, SEQ ID NO. 12) (nucleotide 51 to nucleotide 73) common to human SMN1 and SMN2 mRNA. Since the SMA patient cells used in Example 4 contain only the SMN2 gene, RT-PCR can visualize and quantify only SMN2 full-length and SMN2 Δ7 mRNA.
To synthesize cDNA, 5 μL of lysate, 4 μL of 5× iScript reaction mix, 1 μL of reverse transcriptase, and 10 μL of water are combined and incubated 5 min at 25° C. followed by 30 min at 42° C., followed by 5 min at 85° C. The cDNA solution is stored at −20° C.
To perform endpoint PCR, 5 μL of cDNA, 0.2 μL of 100 μM forward primer, 0.2 μL of 100 μM reverse primer, and 22.5 μL of polymerase super mix are combined in a 96 well semiskirted PCR plate. PCR is carried out at the following temperatures for the indicated time: Step 1: 94° C. (2 min), Step 2: 94° C. (30 sec), Step 3: 55° C. (30 sec), Step 4: 68° C. (1 min), then repeat Steps 2 to 4 for a total of 33 cycles, then hold at 4° C.
10 μL of each PCR sample is electrophoretically separated on a 2% agarose E-gel for 14 minutes stained with double-stranded DNA (dsDNA) staining reagents (e.g., ethidium bromide) and visualized using a gel imager.

Smn protein = Smn protein assay (Smn HTRF) in cultured cells; type: cell-based, human; conditions: for maximal fold induction / EC (1.5-fold): Homo sapiens, Fibroblast, GM03813 SMA Type 1 patient fibroblasts, 48 hours, HTRF; for maximal fold induction: 7-point concentration data, relative to vehicle, read-out: maximum fold (Fold) increase of Smn protein; for EC (1.5-fold): concentration producing 1.5 times Smn protein vs DMSO vehicle, read-out: EC1.5x for Smn protein expression; for Smn protein expression: SMA Type 1 patient fibroblast cells, 48 hour, SMN HTRF assay, FIG. 6
Procedure, shortened: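 SMA patient fibroblasts (5,000/well) were exposed to a 7-point, 3.16-fold compound dilution series for 48 hours at 37° C, in triplicate. Lysates were read by HTRF with anti-SMN d2/kryptate at 665/620 nm. Blank-corrected signal was expressed as fold over DMSO vehicle, giving the EC1.5x and the maximum fold increase.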

Row | melting point | Compound | SMN2 FL mRNA (gel band) [1] | SMN2 Δ7 mRNA (gel band) [1] | SMN2 alternative splicing [1] | maximal fold induction (Smn protein) | EC (1.5-fold) (Smn protein) | Smn protein expression (Smn protein)
1 | 100 to 102 °C | COc1ccc(-c2cc(=O)c3cc(N4CCN[C@@H](C)C4)ccc3o2)cc1F [Cpd 38, 2-(3-fluoro-4-methoxyphenyl)-6-[(3S)-3-methylpiperazin-1-yl]-4H-chromen-4-one] | progressively more SMN2 FL mRNA | less SMN2 Δ7 mRNA | correction of SMN2 alternative splicing | 1.5 to 1.65 | 0.3 to 1 µM | dose dependent increase in Smn protein expression
2 | 208 to 210 °C | C[C@@H]1CN(c2ccc3oc(-c4cn5ccccc5n4)cc(=O)c3c2)C[C@H](C)N1 [Cpd 17, 6-[(3R,5S)-3,5-dimethylpiperazin-1-yl]-2-(imidazo[1,2-a]pyridin-2-yl)-4H-chromen-4-one] | progressively more SMN2 FL mRNA | less SMN2 Δ7 mRNA | correction of SMN2 alternative splicing | > 1.65 | 1 to 3 µM | dose dependent increase in Smn protein expression
